# Assay: xn = mol fraction of the nth substance listed
# Conditions: Liquid, Gas absorption technique
compound,measurement,setting,value
CCn1cc[n+](C)c1.O=S(=O)([N-]S(=O)(=O)C(F)(F)F)C(F)(F)F + O=C=O,binary diffusion coefficient,"303.15 K, 111.3 kPa, x2 = 0",6.15e-10 m2/s
same,binary diffusion coefficient,"313.15 K, 113.7 kPa, x2 = 0",7.22e-10 m2/s
same,binary diffusion coefficient,"323.15 K, 108.4 kPa, x2 = 0",9.52e-10 m2/s
same,binary diffusion coefficient,"333.15 K, 113.2 kPa, x2 = 0",1.19e-09 m2/s
same,binary diffusion coefficient,"343.15 K, 113.7 kPa, x2 = 0",1.56e-09 m2/s
Cn1cc[n+](CCO)c1.F[P-](F)(F)(F)(F)F [3-(2-hydroxyethyl)-1-methylimidazolium hexafluorophosphate] + S,binary diffusion coefficient,"303.15 K, 111.3 kPa, x2 = 0",1.55e-10 m2/s
same,binary diffusion coefficient,"313.15 K, 113.7 kPa, x2 = 0",2.37e-10 m2/s
same,binary diffusion coefficient,"323.15 K, 108.4 kPa, x2 = 0",3.74e-10 m2/s
Cn1cc[n+](CCO)c1.O=S(=O)([N-]S(=O)(=O)C(F)(F)F)C(F)(F)F + O=C=O,binary diffusion coefficient,"303.15 K, 106.2 kPa, x2 = 0",1.31e-10 m2/s
same,binary diffusion coefficient,"313.15 K, 109.9 kPa, x2 = 0",2.67e-10 m2/s
same,binary diffusion coefficient,"323.15 K, 111.2 kPa, x2 = 0",3.97e-10 m2/s
Cn1cc[n+](CCO)c1.O=S(=O)([O-])C(F)(F)F + S,binary diffusion coefficient,"303.15 K, 107 kPa, x2 = 0",2.28e-10 m2/s
same,binary diffusion coefficient,"313.15 K, 109.6 kPa, x2 = 0",2.93e-10 m2/s
same,binary diffusion coefficient,"323.15 K, 113.9 kPa, x2 = 0",3.66e-10 m2/s
Cn1cc[n+](CCO)c1.F[P-](F)(F)(F)(F)F [3-(2-hydroxyethyl)-1-methylimidazolium hexafluorophosphate] + O=C=O,binary diffusion coefficient,"303.15 K, 105.6 kPa, x2 = 0",1.39e-10 m2/s
same,binary diffusion coefficient,"313.15 K, 109.3 kPa, x2 = 0",2.15e-10 m2/s
same,binary diffusion coefficient,"323.15 K, 110.6 kPa, x2 = 0",2.7e-10 m2/s
S [hydrogen sulfide] + CCn1cc[n+](C)c1.O=S(=O)([N-]S(=O)(=O)C(F)(F)F)C(F)(F)F,binary diffusion coefficient,"303.15 K, 109.8 kPa, x1 = 0",7.98e-10 m2/s
same,binary diffusion coefficient,"313.15 K, 108.6 kPa, x1 = 0",9.06e-10 m2/s
same,binary diffusion coefficient,"323.15 K, 109.4 kPa, x1 = 0",1.17e-09 m2/s
Cn1cc[n+](CCO)c1.O=S(=O)([N-]S(=O)(=O)C(F)(F)F)C(F)(F)F + S,binary diffusion coefficient,"303.15 K, 111.7 kPa, x2 = 0",2.07e-10 m2/s
same,binary diffusion coefficient,"313.15 K, 113.9 kPa, x2 = 0",3.35e-10 m2/s
same,binary diffusion coefficient,"323.15 K, 114.5 kPa, x2 = 0",5.51e-10 m2/s
